Measured values as given in patent publication US20020006915A1, “Use of COX-2 inhibitors to treat sepsis, complications thereof, and EP receptor modulation” (priority 2000, published 2002).
“Also recorded” adds a separate entry of the source.

Assays:
CD14 receptor = conditions: mononuclear cells from control and injured subjects, co-culture with 100 μM PGE2
Protocol: To confirm that injury was not down regulating all circulating mononuclear cell surface receptors, the expression of the CD14 receptor, which is ubiquitous on the surface of mononuclear cells, was evaluated.

EP4 receptor = EP4 receptor expression in LPS stimulated human PBMC's via RT-PCR; format: cell-based; conditions: control PBMC's
Protocol: (§1) Serial dilutions were made to co-culture cells with a final concentration of […] NS-398 in a 0.1% DMSO. Control and trauma groups were co-cultured with 0.1% DMSO vehicle for comparisons with NS-398 treated groups.

EP2 receptor = EP2 receptor expression in LPS stimulated human PBMC's via RT-PCR; format: cell-based; conditions: control PBMC's
Protocol: as §1

[1] = exogenous PGE2 from 10^−4 μM, below 100 μM

CCCCC[C@H](O)/C=C/[C@H]1[C@H](O)CC(=O)[C@@H]1C/C=C\CCCC(=O)O [PGE2, Prostaglandin-E2]
CD14 receptor expression (CD14 receptor): did not markedly alter the levels of CD14 receptor expression | EP4 receptor expression (EP4 receptor; 100 μM exogenous PGE2): attenuated to levels below those seen in control samples; also recorded: Decreased expression | EP4 receptor expression (EP4 receptor; [1]): no change in receptor expression; also recorded: No attenuation | EP2 receptor expression (EP2 receptor; 100 μM exogenous PGE2): attenuated to levels below those seen in control samples; also recorded: Decreased expression | EP2 receptor expression (EP2 receptor; [1]): no change in receptor expression; also recorded: No attenuation
